From publication PMC3563091 (Bioorganic & medicinal chemistry letters, 2012) come the findings set out here.

The assay deals with CMG2 (Capillary Morphogenesis Gene protein 2) (Homo sapiens, UniProt P58335, R40C). In kind it is binding.

The IC50 is the concentration at which inhibition is half-maximal. A lower IC50 goes with higher potency.

Sequence of CMG2 (Capillary Morphogenesis Gene protein 2) (P58335 34-489 R40C limits assumed): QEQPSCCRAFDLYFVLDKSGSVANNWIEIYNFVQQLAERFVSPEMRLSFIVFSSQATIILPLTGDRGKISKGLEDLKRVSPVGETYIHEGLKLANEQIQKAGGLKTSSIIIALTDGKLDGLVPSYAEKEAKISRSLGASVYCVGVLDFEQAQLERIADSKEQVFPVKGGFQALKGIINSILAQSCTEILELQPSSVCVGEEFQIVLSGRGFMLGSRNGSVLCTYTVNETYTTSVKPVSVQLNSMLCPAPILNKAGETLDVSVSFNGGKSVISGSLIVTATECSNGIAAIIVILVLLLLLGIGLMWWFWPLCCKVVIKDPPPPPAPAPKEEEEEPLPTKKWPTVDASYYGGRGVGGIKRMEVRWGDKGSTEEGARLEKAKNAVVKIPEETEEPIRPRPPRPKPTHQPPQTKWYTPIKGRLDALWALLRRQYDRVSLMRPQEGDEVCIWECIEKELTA

7-O-methyl neolambertellin [compound 1] showed an IC50 of 500 nM.
